Measured values published in US8461182B2, “7-piperidinoalkyl-3, 4-Dihydroquinolone derivative” (Taisho Pharmaceutical Co., Ltd., priority 2008, dated 2013).
Structures can show the parent of a compound that is named as a salt.

System: MCH1R
Assay: not given
Settings: NON-PATENT DOCUMENT 2; cited from earlier work

| SMILES | effects in experimental animal models |
| --- | --- |
| CN(C)c1nc(N[C@H]2CC[C@@H](NC(=O)c3ccc(F)c(F)c3)CC2)nc2ccccc12 [ATC0175] | antidepressive-like and anxiolytic-like effects |

Molecular target: T1, MCH1R (Homo sapiens, UniProt Q99705)
T1 construct: IC50; other: cells stably expressing non-endogenous active MCH1R; 50 nM MCH; Fluo-4 calcium, FDSS6000
Assay: Calcium Evaluation Test for MCH1R (FDSS assay, MCH-induced intracellular calcium increase)
Type: cell-based
Settings: cells stably expressing non-endogenous active MCH1R; 50 nM MCH; Fluo-4 calcium, FDSS6000
From the text: Calcium Evaluation Test for MCH1R
An FDSS assay can measure the intracellular calcium concentration and can evaluate the Gq-coupled receptor activity using the calcium concentration as an index. For example, the assay can determine whether an analyte is an antagonist, an inverse agonist or an agonist for a Gq-coupled receptor. The FDSS6000™ system (Hamamatsu Photonics K.K.) is designed to perform evaluation based on functionality such as measurement of intracellular calcium for high-throughput screening. Intracellular calcium release by activation of a Gq-coupled receptor can be fluorometrically measured by incorporating a calcium indicator (such as Fluo4) into cells. On the other hand, the assay cannot measure the activation of Gi- and Go-coupled receptors, because the activation is not associated with calcium signaling pathways.
Intracellular fluorescence can be rapidly and successively measured in a 96-well microplate or a 384-well microplate using a fluorometric imaging plate reader system. FDSS6000™ can simultaneously measure fluorescence in all wells sensitively, accurately and by seconds. This system is ideal for functional analysis in cells such as monitoring of an intracellular calcium flow generated within several seconds after activation of a Gq-coupled receptor.
On the day before the test, cells stably expressing non-endogenous active MCH1R were seeded into a 96-well microplate at 3×10^4 cells per well. 100 μL per well of a medium (Dulbecco's modified Eagle medium containing 10% fetal bovine serum, 2 mM glutamine, 1 mM sodium pyruvate and 0.5 mg/mL G418, pH=7.4) was used for culture. On the day of the test, the medium was removed and an assay buffer {Hank's balanced salt solution containing 20 mM HEPES, 0.5 mM probenecid, 0.05 mg/mL amaranth and 0.2% bovine serum albumin (BSA), pH=7.4} containing 2 μM Fluo-4-AM and 0.04% Pluronic F127 was added at 100 μL per well, followed by incubation in a 5% CO2 incubator at 37° C. for 30 minutes. An assay buffer containing each concentration of MCH was added at 50 μL per well, and transient changes in the intracellular calcium concentration induced by MCH were monitored using FDSS6000™ at Ex. 488 nm and Em. 530 nm for 180 seconds. In testing the antagonistic activity of the analyte, MCH was added to a final concentration of 50 nM. An inhibition curve was prepared with various concentrations of the analyte, and the concentration of the analyte inhibiting 50% of the increase in intracellular calcium when 50 nM MCH was added (IC50 value) was calculated using data analysis software Origin Ver. 6.

| IC50 [nM] | SMILES |
| --- | --- |
| 6.22 | COc1cccc(C(=O)NC2CCN(Cc3ccc4c(c3)NC(=O)CC4)CC2)c1 [Example 2, 3-methoxy-N-{1-[(2-oxo-1,2,3,4-tetrahydroquinolin-7-yl)methyl]piperidin-4-yl}benzamide monohydrochloride, monohydrate] |
| 10.9 | O=C1CCc2ccc(CN3CCC(NC(=O)c4cccc(F)c4)CC3)cc2N1 [Example 3, 3-fluoro-N-{1-[(2-oxo-1,2,3,4-tetrahydroquinolin-7-yl)methyl]piperidin-4-yl}benzamide] |
| 1.5 | O=C1CCc2ccc(CN3CCC(NC(=O)c4ccc(F)c(F)c4)CC3)cc2N1 [Example 5, 3,4-difluoro-N-{1-[(2-oxo-1,2,3,4-tetrahydroquinolin-7-yl)methyl]piperidin-4-yl}benzamide] |
| 9.08 | O=C1CCc2ccc(CN3CCC(NC(=O)c4cccc(Cl)c4)CC3)cc2N1 [Example 7, 3-chloro-N-{1-[(2-oxo-1,2,3,4-tetrahydroquinolin-7-yl)methyl]piperidin-4-yl}benzamide] |
| 19.2 | Cc1cccc(C(=O)NC2CCN(Cc3ccc4c(c3)NC(=O)CC4)CC2)c1 [Example 8, 3-methyl-N-{1-[(2-oxo-1,2,3,4-tetrahydroquinolin-7-yl)methyl]piperidin-4-yl}benzamide] |
| 3.85 | COc1cc(OC)cc(C(=O)NC2CCN(Cc3ccc4c(c3)NC(=O)CC4)CC2)c1 [Example 19, 3,5-dimethoxy-N-{1-[(2-oxo-1,2,3,4-tetrahydroquinolin-7-yl)methyl]piperidin-4-yl}benzamide] |
| 19.7 | O=C1CCc2ccc(CN3CCC(NC(=O)C(c4ccccc4)c4ccccc4)CC3)cc2N1 [Example 27, N-{1-[(2-oxo-1,2,3,4-tetrahydroquinolin-7-yl)methyl]piperidin-4-yl}-2,2-diphenylacetamide] |
| 10.7 | CC(=O)c1cccc(C(=O)NC2CCN(Cc3ccc4c(c3)NC(=O)CC4)CC2)c1 [Example 32, 3-acetyl-N-{1-[(2-oxo-1,2,3,4-tetrahydroquinolin-7-yl)methyl]piperidin-4-yl}benzamide] |
| 1.96 | O=C1CCc2ccc(CN3CCC(NC(=O)c4cc(F)c(F)c(F)c4)CC3)cc2N1 [Example 33, 3,4,5-trifluoro-N-{1-[(2-oxo-1,2,3,4-tetrahydroquinolin-7-yl)methyl]piperidin-4-yl}benzamide] |
| 18.3 | N#Cc1cccc(C(=O)NC2CCN(Cc3ccc4c(c3)NC(=O)CC4)CC2)c1 [Example 37, 3-cyano-N-{1-[(2-oxo-1,2,3,4-tetrahydroquinolin-7-yl)methyl]piperidin-4-yl}benzamide] |
| 18.8 | O=C1CCc2ccc(CN3CCC(NC(=O)c4cncc(Cl)c4)CC3)cc2N1 [Example 38, 5-chloro-N-{1-[(2-oxo-1,2,3,4-tetrahydroquinolin-7-yl)methyl]piperidin-4-yl}pyridine-3-carboxamide] |
| 4.34 | O=C1CCc2ccc(CN3CCC(NC(=O)COc4ccc(F)c(Cl)c4)CC3)cc2N1 [Example 46, 2-(3-chloro-4-fluorophenoxy)-N-{1-[(2-oxo-1,2,3,4-tetrahydroquinolin-7-yl)methyl]piperidin-4-yl}acetamide] |
| 1.07 | CC(c1ccc2c(c1)NC(=O)CC2)N1CCC(NC(=O)c2ccc(F)c(Cl)c2)CC1 (stereo not drawn) [Example 51, 3-chloro-4-fluoro-N-{1-[1-(2-oxo-1,2,3,4-tetrahydroquinolin-7-yl)ethyl]piperidin-4-yl}benzamide] |
| 39.3 | COc1cccc(C(=O)NC2CCN(Cc3cc4c(cc3F)CCC(=O)N4)CC2)c1 [Example 53, N-{1-[(6-fluoro-2-oxo-1,2,3,4-tetrahydroquinolin-7-yl)methyl]piperidin-4-yl}-3-methoxybenzamide] |
